# Data from patent US20160296529A1, “AMINOTRIAZOLOPYRIDINE FOR USE IN THE TREATMENT OF INFLAMMATION, AND PHARMACEUTICAL COMPOSITIONS THEREOF” (priority 2012, published 2016).
# Like-named read-outs stand apart in the source and are kept apart here.
# Assays:
# [1] = Single dose pharmacokinetics in human; format: in vivo; settings: for Ratio I/II of exposure (AUC Formula I : AUC Formula II) / AUC: human; for AUC: plasma, po, capsules, read-out: exposure (expressed as AUC)
# Protocol: Serial blood samples were collected over 72 h to determine plasma concentrations of the compounds according to Formula II and Formula I using a validated liquid chromatography-mass spectrometry/mass spectrometry (LC-MS/MS) method with a limit of quantification of 1.00 ng/mL. PK parameters were assessed using a statistical analysis package (WinNonLin (Pharsight, Sunnyvale, Calif.: CA 94086, USA).
# Mean plasma concentration-time profiles of the compound according to Formula II and the compound according to Formula I were measured.
# In order to show the comparative exposures of the two compounds, the AUC of the compounds according to Formula I and the compound according to Formula II were calculated. The AUC value represents the total exposure of the compound in the species after dosing. These values were then expressed as a ratio of AUC of the compound according to Formula I: AUC of the compound according to Formula II in FIG. 4. From this ratio it can clearly be seen that there was a significant difference in exposure to a compound according to Formula I after administration of a compound according to Formula II in human compared to the exposure seen in animals for therapeutically equivalent doses. Without wanting to be bound by theory, it was believed that this difference was related to the difference in the apparent terminal half-life in the different species.
# [2] = Target inhibition: circulating levels in healthy volunteers as multiples of whole blood assay IC50; format: in vivo, human
# Protocol: The compound according to Formula II was dosed daily in healthy volunteers at 200 mg QD and 100 mg BID.
# The resulting levels of Formula II and Formula I were then measured and plotted (FIG. 5) as multiples of their respective IC50 as determined by the Whole Blood assay described above in Example 3.4.
# rat CIA model = test: CIA model 1 (rat collagen induced arthritis, clinical score); format: in vivo, Dark Agouti rats; set-up: key to Rat CIA Clinical Score: sum of 4 paws, each 0 = no symptoms to 4 = maximal; max 16; settings: for Rat CIA Clinical Score: Formula I 60 mg/kg
# Protocol: Complete Freund's adjuvant (CFA) and Incomplete Freund's adjuvant (IFA) were purchased from Difco. Bovine collagen type II (CII), lipopolysaccharide (LPS), and Enbrel® was obtained from Chondrex (Isle d'Abeau, France); Sigma (P4252, L'Isle d'Abeau, France), Whyett (25 mg injectable syringe, France), Acros Organics (Palo Alto, Calif.), respectively. All other reagents used were of reagent grade and all solvents were of analytical grade.
# Dark Agouti rats (male, 7-8 weeks old) were obtained from Harlan Laboratories (Melderslo, Netherlands). Rats were kept on a 12 hr light/dark cycle (0700-1900). Temperature was maintained at 22° C., and food and water were provided ad libitum.
# One day before the experiment, CII solution (2 mg/mL) was prepared with 0.05 M acetic acid and stored at 4° C. Just before the immunization, equal volumes of adjuvant (IFA) and CII were mixed by a homogenizer in a pre-cooled glass bottle in an ice water bath. Extra adjuvant and prolonged homogenization may be required if an emulsion was not formed. 0.2 mL of the emulsion was injected intradermally at the base of the tail of each rat on day 1, a second booster intradermal injection (CII solution at 2 mg/mL in CFA 0.1 mL saline) was performed on day 9. This immunization method was modified from published methods (Sims et al, 2004; Jou et al., 2005).
# The therapeutic effects of the compounds were tested in the rat CIA model. Rats were randomly divided into equal groups and each group contained 10 rats. All rats were immunized on day 1 and boosted on day 9. Therapeutic dosing lasts from day 16 to day 30. The negative control group was treated with vehicle (MC 0.5%) and the positive control group with Enbrel® (10 mg/kg, 3× week., s.c.). A compound of interest was typically tested at 3 doses, e.g. 6, 10, 60 mg/kg, q.d., p.o.
# Arthritis was scored according to the method of Khachigian 2006, Lin et al 2007 and Nishida et al. 2004). The swelling of each of the four paws was ranked with the arthritic score as follows: 0—no symptoms; 1—mild, but definite redness and swelling of one type of joint such as the ankle or wrist, or apparent redness and swelling limited to individual digits, regardless of the number of affected digits; 2—moderate redness and swelling of two or more types of joints; 3—severe redness and swelling of the entire paw including digits; 4—maximally inflamed limb with involvement of multiple joints (maximum cumulative clinical arthritis score 16 per animal) (Nishida et al., 2004).
# To permit the meta-analysis of multiple studies the clinical score values were normalised as follows:
# AUC of clinical score (AUC score): The area under the curve (AUC) from day 1 to day 14 was calculated for each individual rat. The AUC of each animal was divided by the average AUC obtained for the vehicle in the study from which the data on that animal was obtained and multiplied by 100 (i.e. the AUC was expressed as a percentage of the average vehicle AUC per study).
# Clinical score increase from day 1 to day 14 (End point score): The clinical score difference for each animal was divided by the average clinical score difference obtained for the vehicle in the study from which the data on that animal was obtained and multiplied by 100 (i.e. the difference was expressed as a percentage of the average clinical score difference for the vehicle per study).
# [3] = after Formula II 10 mg single dose
# [4] = after Formula II 25 mg single dose
# [5] = after Formula II 50 mg single dose
# [6] = after Formula II 100 mg single dose
# [7] = after Formula II 200 mg single dose
structure (smiles),measurement,setting,value
"Nc1nc2cccc(-c3ccc(CN4CCS(=O)(=O)CC4)cc3)n2n1 [Formula I, 5-[4-(1,1-Dioxothiomorpholin-4-ylmethyl)-phenyl]-[1,2,4]triazolo[1,5-a]pyridin-2-ylamine]",apparent terminal half life in human relative to the other animal species,"[1]; human vs other animal species, in vivo",at least 3 fold
same,Ratio I/II of exposure (AUC Formula I : AUC Formula II),[1]; [3],22.58
same,Ratio I/II of exposure (AUC Formula I : AUC Formula II),[1]; [4],21.81
same,Ratio I/II of exposure (AUC Formula I : AUC Formula II),[1]; [5],19.86
same,Ratio I/II of exposure (AUC Formula I : AUC Formula II),[1]; [6],15.92
same,Ratio I/II of exposure (AUC Formula I : AUC Formula II),[1]; [7],12.8
same,half-life,"[1]; oral, human plasma, single dose (10-200 mg) of Formula II as capsules, read-out: mean apparent terminal elimination half-life",21 to 27 h
same,AUC,[1]; [3],2890 ng·h/mL
same,AUC,[1]; [4],7220 ng·h/mL
same,AUC,[1]; [5],14600 ng·h/mL
same,AUC,[1]; [6],26900 ng·h/mL
same,AUC,[1]; [7],57600 ng·h/mL
same,Ratio [blood circulating dose]/[circulating dose at IC50 quantity],"[2]; Formula II at 100 mg BID, time point 0 h",0.97
same,Ratio [blood circulating dose]/[circulating dose at IC50 quantity],"[2]; Formula II at 100 mg BID, time point 0.5 h",0.93
same,Ratio [blood circulating dose]/[circulating dose at IC50 quantity],"[2]; Formula II at 100 mg BID, time point 1 h",0.88
same,Ratio [blood circulating dose]/[circulating dose at IC50 quantity],"[2]; Formula II at 100 mg BID, time point 2 h",0.97
same,Ratio [blood circulating dose]/[circulating dose at IC50 quantity],"[2]; Formula II at 100 mg BID, time point 3 h",1.00
same,Ratio [blood circulating dose]/[circulating dose at IC50 quantity],"[2]; Formula II at 100 mg BID, time point 5 h",1.13
same,Ratio [blood circulating dose]/[circulating dose at IC50 quantity],"[2]; Formula II at 100 mg BID, time point 8 h",0.96
same,Ratio [blood circulating dose]/[circulating dose at IC50 quantity],"[2]; Formula II at 100 mg BID, time point 12 h",0.86
same,Ratio [blood circulating dose]/[circulating dose at IC50 quantity],"[2]; Formula II at 100 mg BID, time point 12.5 h",0.93
same,Ratio [blood circulating dose]/[circulating dose at IC50 quantity],"[2]; Formula II at 100 mg BID, time point 13 h",0.88
same,Ratio [blood circulating dose]/[circulating dose at IC50 quantity],"[2]; Formula II at 100 mg BID, time point 14 h",0.97
same,Ratio [blood circulating dose]/[circulating dose at IC50 quantity],"[2]; Formula II at 100 mg BID, time point 15 h",1.00
same,Ratio [blood circulating dose]/[circulating dose at IC50 quantity],"[2]; Formula II at 100 mg BID, time point 17 h",1.13
same,Ratio [blood circulating dose]/[circulating dose at IC50 quantity],"[2]; Formula II at 100 mg BID, time point 20 h",0.96
same,Ratio [blood circulating dose]/[circulating dose at IC50 quantity],"[2]; Formula II at 100 mg BID, time point 24 h",0.86
same,Ratio [blood circulating dose]/[circulating dose at IC50 quantity],"[2]; Formula II at 200 mg QD, time point 0 h",0.69
same,Ratio [blood circulating dose]/[circulating dose at IC50 quantity],"[2]; Formula II at 200 mg QD, time point 0.5 h",0.65
same,Ratio [blood circulating dose]/[circulating dose at IC50 quantity],"[2]; Formula II at 200 mg QD, time point 1 h",0.69
same,Ratio [blood circulating dose]/[circulating dose at IC50 quantity],"[2]; Formula II at 200 mg QD, time point 2 h",0.84
same,Ratio [blood circulating dose]/[circulating dose at IC50 quantity],"[2]; Formula II at 200 mg QD, time point 3 h",0.96
same,Ratio [blood circulating dose]/[circulating dose at IC50 quantity],"[2]; Formula II at 200 mg QD, time point 5 h",1.00
same,Ratio [blood circulating dose]/[circulating dose at IC50 quantity],"[2]; Formula II at 200 mg QD, time point 8 h",0.93
same,Ratio [blood circulating dose]/[circulating dose at IC50 quantity],"[2]; Formula II at 200 mg QD, time point 24 h",0.84
same,normalized clinical score values (calculated as AUC or as the difference from day 1 to day 14),rat CIA model; 60 mg/kg,statistically significant improvements
same,Rat CIA Clinical Score,rat CIA model; day 18,2.9
same,Rat CIA Clinical Score,rat CIA model; day 19,4.4
same,Rat CIA Clinical Score,rat CIA model; day 20,5.0
same,Rat CIA Clinical Score,rat CIA model; day 21,3.9
same,Rat CIA Clinical Score,rat CIA model; day 24,4.5
same,Rat CIA Clinical Score,rat CIA model; day 25,4.3
same,Rat CIA Clinical Score,rat CIA model; day 26,3.8
same,Rat CIA Clinical Score,rat CIA model; day 27,3.7
same,Rat CIA Clinical Score,rat CIA model; day 28,3.3
same,activity in the CIA rat model,rat CIA model; dosed alone,active
